Biological target: Mucolipin-3 (Homo sapiens) (UniProt Q8TDD5)
Experiment: TRPML3 agonist potency, dose response, cell-based, calcium fluorescence (AID 2510)
Details: TRPML3-expressing cells, agonist mode

Mucolipin-3 (Homo sapiens), sequence (Q8TDD5 whole entry, looked up): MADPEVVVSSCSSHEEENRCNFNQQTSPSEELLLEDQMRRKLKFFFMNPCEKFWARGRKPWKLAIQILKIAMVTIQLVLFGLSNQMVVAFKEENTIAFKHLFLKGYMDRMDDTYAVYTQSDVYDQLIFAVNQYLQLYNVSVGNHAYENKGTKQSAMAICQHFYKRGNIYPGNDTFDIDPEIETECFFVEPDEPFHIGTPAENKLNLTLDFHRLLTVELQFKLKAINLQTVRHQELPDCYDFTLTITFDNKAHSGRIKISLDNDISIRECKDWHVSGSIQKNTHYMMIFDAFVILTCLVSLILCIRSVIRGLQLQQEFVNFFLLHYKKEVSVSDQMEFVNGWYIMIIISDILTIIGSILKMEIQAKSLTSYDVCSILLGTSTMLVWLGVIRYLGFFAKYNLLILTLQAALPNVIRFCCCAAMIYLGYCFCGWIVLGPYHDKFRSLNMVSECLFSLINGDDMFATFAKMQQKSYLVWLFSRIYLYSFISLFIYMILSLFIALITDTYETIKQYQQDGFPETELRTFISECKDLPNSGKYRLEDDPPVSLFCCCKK

CCOc1ccc(S(=O)(=O)N2CCCCC2)c(C)c1C
EC50: 1800 nM

Source: PubChem BioAssay AID2510 (The Scripps Research Institute Molecular Screening Center, 2010)
